{"source": "paper PMC10262914", "about": "(Bioorganic chemistry, 2022)", "key": {"[1]": {"system": "Mycobacterium tuberculosis H37Rv", "assay": "Alamar blue metabolic readout assay", "format": "cell-based", "settings": "M. tuberculosis H37Rv, GAS media"}, "[2]": {"system": "Mycobacterium tuberculosis H37Rv", "assay": "Alamar blue metabolic readout assay", "format": "cell-based", "settings": "M. tuberculosis H37Rv, 7H12 media"}, "[3]": {"system": "Mycobacterium tuberculosis H37Rv", "assay": "Low oxygen recovery assay", "format": "cell-based", "settings": "M. tuberculosis H37Rv, low oxygen \"latent\" conditions"}, "[4]": {"assay": "Microsomal stability assay, mouse", "settings": "mouse hepatic microsomes"}, "[5]": {"assay": "Microsomal stability assay, human", "settings": "human hepatic microsomes"}, "[6]": {"assay": "Microsomal stability assay, marmoset", "settings": "marmoset hepatic microsomes"}}}
{"compound": "[2H]c1c(C([2H])([2H])[2H])cn2c(C(=O)NC([2H])([2H])c3ccc(C(F)(F)F)cc3)c(C([2H])([2H])[2H])nc2c1[2H]", "note": "[Compound 57, 2,6-Bis(Methyl-d3)-N-((4-(trifluoromethyl)phenyl)methyl-d2) imidazo[1,2-a]pyridine-7,8-d2-3-carboxamide]", "values": [{"measurement": "GAS MIC", "setting": "[1]", "result": "5.7 ± 1.2", "unit": "nM"}, {"measurement": "7H12 MIC", "setting": "[2]", "result": "6.7 ± 0.9", "unit": "nM"}, {"measurement": "LORA MIC", "setting": "[3]", "result": ">10,000 nM"}, {"measurement": "CLint", "setting": "[4]", "result": 78, "unit": "ml/min/g protein"}, {"measurement": "CLint", "setting": "[5]", "result": 32, "unit": "ml/min/g protein"}, {"measurement": "Half-life", "setting": "[5]; 2 μM compound, 0.5 mg/mL", "result": 43, "unit": "min"}, {"measurement": "CLint", "setting": "[6]", "result": 60, "unit": "ml/min/g protein"}, {"measurement": "Half-life", "setting": "[6]; 2 μM compound, 0.5 mg/mL", "result": 23, "unit": "min"}]}
